Patent publication US10550124B2, “Atropisomerism for increased kinase inhibitor selectivity” (SAN DIEGO STATE UNIVERSITY RESEARCH FOUNDATION, priority 2015, dated 2020)
“And” between values parts separate entries of the source, which are not always exact repeats. Identical values can stand only once.

Tests used:
Assay type in all cases: biochemical
Abl = Abl (Homo sapiens, UniProt P00519); experiment: Z′-LYTE kinase inhibition assay, Abl
Excerpt: (§1) All samples were sent out to Life Technologies to obtain kinase inhibition data. A brief description of the assays and analyses are included below.
(§2) Assay Theory (SelectScreen® Kinase Profiling Services (Life Technologies, Madison, Wis. USA). The Z′-LYTE® biochemical assay employs a fluorescence-based, coupled-enzyme format and is based on the differential sensitivity of phosphorylated and non-phosphorylated peptides to proteolytic cleavage. The peptide substrate is labeled with two fluorophores one at each end—that make up a FRET pair.
(§3) In the primary reaction, the kinase transfers the gamma-phosphate of ATP to a single tyrosine, serine or threonine residue in a synthetic FRET-peptide. In the secondary reaction, a site-specific protease recognizes and cleaves non-phosphorylated FRET-peptides.
(§4) Phosphorylation of FRET-peptides suppresses cleavage by the Development Reagent. Cleavage disrupts FRET between the donor (i.e., coumarin) and acceptor (i.e., fluorescein) fluorophores on the FRET-peptide, whereas uncleaved, phosphorylated FRET-peptides maintain FRET. A ratiometric method, which calculates the ratio (the Emission Ratio) of donor emission to acceptor emission after excitation of the donor fluorophore at 400 nm, is used to quantitate reaction progress, as shown in the equation below: […]
(§5) A significant benefit of this ratiometric method for quantitating reaction progress is the elimination of well-to-well variations in FRET-peptide concentration and signal intensities. As a result, the assay yields very high Z′-factor values (>0.7) at a low percent phosphorylation. Both cleaved and uncleaved FRET-peptides contribute to the fluorescence signals and therefore to the Emission Ratio. The extent of phosphorylation of the FRET-peptide can be calculated from the Emission Ratio. The Emission Ratio will remain low if the FRET-peptide is phosphorylated (i.e., no kinase inhibition) and will he high if the FRET-peptide is non-phosphorylated (i.e., kinase inhibition).

Alk = Alk (Homo sapiens, UniProt Q9UM73); experiment: Z′-LYTE kinase inhibition assay, Alk; details: average of 2 runs
Excerpt: as §1, §2, §3, §4, §5

Blk = Blk (Homo sapiens, UniProt P51451); experiment: Z′-LYTE kinase inhibition assay, Blk; details: average of 2 runs
Excerpt: as §1, §2, §3, §4, §5

BTK = BTK (Homo sapiens, UniProt Q06187); experiment: Z′-LYTE kinase inhibition assay, BTK; details: average of 2 runs
Excerpt: as §1, §2, §3, §4, §5

CSK = CSK (Homo sapiens, UniProt P41240); experiment: Z′-LYTE kinase inhibition assay, CSK; details: average of 2 runs
Excerpt: as §1, §2, §3, §4, §5

EGFR = EGFR (Homo sapiens, UniProt P00533); experiment: Z′-LYTE kinase inhibition assay, EGFR
Excerpt: as §1, §2, §3, §4, §5

Her-2 = Her-2 (Homo sapiens, UniProt P04626); experiment: Z′-LYTE kinase inhibition assay, Her-2; details: average of 2 runs
Excerpt: as §1, §2, §3, §4, §5

Fgr = Fgr (Homo sapiens, UniProt P09769); experiment: Z′-LYTE kinase inhibition assay, Fgr; details: average of 2 runs
Excerpt: as §1, §2, §3, §4, §5

Fyn = Fyn (Homo sapiens, UniProt P06241); experiment: Z′-LYTE kinase inhibition assay, Fyn; details: average of 2 runs
Excerpt: as §1, §2, §3, §4, §5

Hck = Hck (Homo sapiens, UniProt P08631); experiment: Z′-LYTE kinase inhibition assay, Hck; details: average of 2 runs
Excerpt: as §1, §2, §3, §4, §5

Kit = Kit (Homo sapiens, UniProt P10721); experiment: Z′-LYTE kinase inhibition assay, Kit; details: average of 2 runs
Excerpt: as §1, §2, §3, §4, §5

Lck = Lck (Homo sapiens, UniProt P06239); experiment: Z′-LYTE kinase inhibition assay, Lck; details: average of 2 runs
Excerpt: as §1, §2, §3, §4, §5

Lyn = Lyn (Homo sapiens, UniProt P07948); experiment: Z′-LYTE kinase inhibition assay, Lyn; details: average of 2 runs
Excerpt: as §1, §2, §3, §4, §5

pdgfr-a = pdgfr-a (Homo sapiens, UniProt P16234); experiment: Z′-LYTE kinase inhibition assay, pdgfr-a; details: average of 2 runs
Excerpt: as §1, §2, §3, §4, §5

pdgfr-b = pdgfr-b (Homo sapiens, UniProt P09619); experiment: Z′-LYTE kinase inhibition assay, pdgfr-b; details: average of 2 runs
Excerpt: as §1, §2, §3, §4, §5

Ret = Ret (Homo sapiens, UniProt P07949); experiment: Z′-LYTE kinase inhibition assay, Ret
Excerpt: as §1, §2, §3, §4, §5

Yes = Yes (Homo sapiens, UniProt P07947); experiment: Z′-LYTE kinase inhibition assay, Yes
Excerpt: as §1, §2, §3, §4, §5

Src kinase = Src kinase (Homo sapiens, UniProt P12931); experiment: Z′-LYTE kinase inhibition assay, Src
Excerpt: Based on the observed stereochemical stabilities, we chose 1f, 2e, and 2f for further study and obtained inhibition data against Src kinase from Life Technologies' Z′-LYTE™ kinase assay (Scheme 3).
as §1, §2, §3, §4, §5

[1] = test system: panel of 18 tyrosine kinases; experiment: Kinase inhibitor profiling across a panel of tyrosine kinases (selectivity); details: for S(40%): number of kinases inhibited greater than 40% divided by number of kinases tested (including Src)
Procedure: In order to probe the effect of atropisomeric conformation on kinase selectivity we subjected 1f, 2e, and 2f to kinase inhibitor profiling across a panel of tyrosine kinases at 1000 nM and 5000 nM (data for 2e shown in Scheme 4 below).
To analyze each analog's selectivity across the panel we turned to selectivity scores (Davis et al., Nat. Biotechnol. 2011, 29, 1046-51), simply the number of kinases inhibited above a certain threshold divided by the number of kinases evaluated. […] For example at 1000 nM 2e-(R) yielded an S(40%) of 0.11 while 2e-(S) gave an S(40%) of 0.16. […] Differences in selectivity between 2e-(R) and 2e-(S) at 5000 nM (4.5 times the IC50 of 2e-(S) toward Src) and for 5 at 1000 nM (6.25 times the IC50 of 5 toward Src) can be viewed graphically across tyrosine kinases (FIG. 3). Importantly, similar trends were also observed across each of the atropisomeric series tested.
as §1, §2, §3, §4, §5

Chain of Abl (P00519 whole entry): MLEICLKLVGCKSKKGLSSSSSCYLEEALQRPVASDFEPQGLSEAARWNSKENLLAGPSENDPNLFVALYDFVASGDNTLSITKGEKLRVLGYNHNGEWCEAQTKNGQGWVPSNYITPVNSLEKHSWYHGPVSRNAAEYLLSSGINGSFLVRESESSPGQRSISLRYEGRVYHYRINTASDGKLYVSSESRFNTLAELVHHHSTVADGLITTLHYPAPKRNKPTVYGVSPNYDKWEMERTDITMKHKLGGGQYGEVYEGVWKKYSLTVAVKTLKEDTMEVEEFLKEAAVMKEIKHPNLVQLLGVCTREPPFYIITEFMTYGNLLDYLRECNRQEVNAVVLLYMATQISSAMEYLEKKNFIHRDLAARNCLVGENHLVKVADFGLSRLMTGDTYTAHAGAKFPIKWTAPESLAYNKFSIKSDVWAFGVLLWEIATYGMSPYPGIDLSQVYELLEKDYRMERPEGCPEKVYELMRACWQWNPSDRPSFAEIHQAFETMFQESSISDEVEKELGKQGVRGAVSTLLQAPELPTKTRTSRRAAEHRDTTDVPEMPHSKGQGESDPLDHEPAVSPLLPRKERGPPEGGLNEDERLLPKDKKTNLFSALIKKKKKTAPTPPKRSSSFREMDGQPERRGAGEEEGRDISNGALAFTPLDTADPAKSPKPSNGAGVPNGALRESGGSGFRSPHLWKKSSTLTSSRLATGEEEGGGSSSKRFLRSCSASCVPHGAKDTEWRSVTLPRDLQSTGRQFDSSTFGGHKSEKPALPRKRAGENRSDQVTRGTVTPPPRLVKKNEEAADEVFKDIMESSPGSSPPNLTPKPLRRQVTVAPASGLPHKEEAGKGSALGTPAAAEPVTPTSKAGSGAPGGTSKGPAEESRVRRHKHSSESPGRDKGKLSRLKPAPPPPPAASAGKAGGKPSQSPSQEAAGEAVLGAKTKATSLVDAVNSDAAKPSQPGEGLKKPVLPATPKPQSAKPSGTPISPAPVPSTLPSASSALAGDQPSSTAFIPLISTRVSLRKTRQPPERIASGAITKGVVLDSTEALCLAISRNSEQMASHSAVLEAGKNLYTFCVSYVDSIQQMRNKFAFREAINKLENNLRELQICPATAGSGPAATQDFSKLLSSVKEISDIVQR
Chain of Ret (P07949 29-1114): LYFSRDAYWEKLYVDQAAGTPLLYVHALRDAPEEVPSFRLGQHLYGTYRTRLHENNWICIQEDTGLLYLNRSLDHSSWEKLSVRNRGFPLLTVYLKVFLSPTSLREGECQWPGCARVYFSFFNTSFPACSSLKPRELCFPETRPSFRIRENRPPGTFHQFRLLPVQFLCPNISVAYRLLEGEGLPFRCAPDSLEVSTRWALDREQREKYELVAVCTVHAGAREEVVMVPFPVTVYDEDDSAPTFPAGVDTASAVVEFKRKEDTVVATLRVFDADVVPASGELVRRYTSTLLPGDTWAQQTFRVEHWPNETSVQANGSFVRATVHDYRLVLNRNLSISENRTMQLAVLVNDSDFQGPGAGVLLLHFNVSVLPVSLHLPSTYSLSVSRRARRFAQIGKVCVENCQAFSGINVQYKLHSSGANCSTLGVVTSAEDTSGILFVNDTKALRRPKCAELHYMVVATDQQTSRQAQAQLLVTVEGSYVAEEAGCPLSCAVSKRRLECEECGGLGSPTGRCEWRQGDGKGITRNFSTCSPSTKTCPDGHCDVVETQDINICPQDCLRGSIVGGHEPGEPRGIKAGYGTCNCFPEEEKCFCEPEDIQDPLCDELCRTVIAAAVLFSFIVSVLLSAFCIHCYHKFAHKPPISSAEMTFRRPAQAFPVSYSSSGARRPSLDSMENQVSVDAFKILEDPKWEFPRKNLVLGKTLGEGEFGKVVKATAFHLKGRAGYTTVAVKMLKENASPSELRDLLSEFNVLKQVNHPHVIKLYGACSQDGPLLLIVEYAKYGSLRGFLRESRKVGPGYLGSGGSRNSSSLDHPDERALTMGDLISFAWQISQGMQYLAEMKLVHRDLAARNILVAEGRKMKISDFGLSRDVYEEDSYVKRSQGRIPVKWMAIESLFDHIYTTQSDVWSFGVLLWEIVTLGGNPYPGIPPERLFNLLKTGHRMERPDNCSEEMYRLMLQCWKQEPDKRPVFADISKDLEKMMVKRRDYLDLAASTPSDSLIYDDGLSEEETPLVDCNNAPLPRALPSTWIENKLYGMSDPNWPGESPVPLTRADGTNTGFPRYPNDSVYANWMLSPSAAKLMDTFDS
Chain of EGFR (P00533 25-1210): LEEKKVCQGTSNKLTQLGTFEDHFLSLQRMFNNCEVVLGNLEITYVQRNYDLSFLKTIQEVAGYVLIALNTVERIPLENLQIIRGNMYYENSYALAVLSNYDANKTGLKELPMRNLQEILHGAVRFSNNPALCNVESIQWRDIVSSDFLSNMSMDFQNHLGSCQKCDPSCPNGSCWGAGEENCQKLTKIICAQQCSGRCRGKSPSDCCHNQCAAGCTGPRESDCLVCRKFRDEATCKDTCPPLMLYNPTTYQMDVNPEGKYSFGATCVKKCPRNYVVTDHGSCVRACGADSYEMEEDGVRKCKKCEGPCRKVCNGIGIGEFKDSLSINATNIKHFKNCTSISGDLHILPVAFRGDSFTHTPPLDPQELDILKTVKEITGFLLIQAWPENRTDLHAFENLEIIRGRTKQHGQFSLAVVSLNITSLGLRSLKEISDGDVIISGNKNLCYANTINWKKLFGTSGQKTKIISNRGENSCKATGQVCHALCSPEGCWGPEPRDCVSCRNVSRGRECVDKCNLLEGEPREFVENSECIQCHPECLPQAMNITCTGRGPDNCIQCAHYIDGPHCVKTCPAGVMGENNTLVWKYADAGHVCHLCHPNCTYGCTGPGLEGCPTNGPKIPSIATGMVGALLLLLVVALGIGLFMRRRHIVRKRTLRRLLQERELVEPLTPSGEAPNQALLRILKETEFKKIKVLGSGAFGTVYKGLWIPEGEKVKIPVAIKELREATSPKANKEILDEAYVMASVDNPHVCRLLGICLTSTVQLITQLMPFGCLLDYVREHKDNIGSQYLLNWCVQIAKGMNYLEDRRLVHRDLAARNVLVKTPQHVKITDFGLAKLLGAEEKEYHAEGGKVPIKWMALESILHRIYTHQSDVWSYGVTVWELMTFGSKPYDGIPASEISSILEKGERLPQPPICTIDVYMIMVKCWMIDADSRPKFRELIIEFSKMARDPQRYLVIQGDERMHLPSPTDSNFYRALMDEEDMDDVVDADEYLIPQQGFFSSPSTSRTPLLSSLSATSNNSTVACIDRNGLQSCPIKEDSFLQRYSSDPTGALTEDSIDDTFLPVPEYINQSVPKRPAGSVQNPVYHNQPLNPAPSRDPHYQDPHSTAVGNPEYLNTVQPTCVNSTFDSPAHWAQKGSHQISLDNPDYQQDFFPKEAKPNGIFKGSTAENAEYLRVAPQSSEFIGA
Chain of Yes (P07947 whole entry): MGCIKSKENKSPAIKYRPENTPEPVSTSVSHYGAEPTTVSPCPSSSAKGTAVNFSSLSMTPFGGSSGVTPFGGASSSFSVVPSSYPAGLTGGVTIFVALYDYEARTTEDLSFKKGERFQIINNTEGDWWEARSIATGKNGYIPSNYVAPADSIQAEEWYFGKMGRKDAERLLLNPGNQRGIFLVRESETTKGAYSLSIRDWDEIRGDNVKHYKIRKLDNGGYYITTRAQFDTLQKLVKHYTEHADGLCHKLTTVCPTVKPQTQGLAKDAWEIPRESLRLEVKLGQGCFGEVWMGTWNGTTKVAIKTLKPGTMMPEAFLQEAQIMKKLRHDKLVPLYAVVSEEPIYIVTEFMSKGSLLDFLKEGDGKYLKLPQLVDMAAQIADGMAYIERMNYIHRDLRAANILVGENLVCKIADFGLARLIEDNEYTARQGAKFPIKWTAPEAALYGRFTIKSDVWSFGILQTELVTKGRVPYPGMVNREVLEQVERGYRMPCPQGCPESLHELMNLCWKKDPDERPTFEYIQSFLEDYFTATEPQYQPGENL
Chain of Kit (P10721 26-976): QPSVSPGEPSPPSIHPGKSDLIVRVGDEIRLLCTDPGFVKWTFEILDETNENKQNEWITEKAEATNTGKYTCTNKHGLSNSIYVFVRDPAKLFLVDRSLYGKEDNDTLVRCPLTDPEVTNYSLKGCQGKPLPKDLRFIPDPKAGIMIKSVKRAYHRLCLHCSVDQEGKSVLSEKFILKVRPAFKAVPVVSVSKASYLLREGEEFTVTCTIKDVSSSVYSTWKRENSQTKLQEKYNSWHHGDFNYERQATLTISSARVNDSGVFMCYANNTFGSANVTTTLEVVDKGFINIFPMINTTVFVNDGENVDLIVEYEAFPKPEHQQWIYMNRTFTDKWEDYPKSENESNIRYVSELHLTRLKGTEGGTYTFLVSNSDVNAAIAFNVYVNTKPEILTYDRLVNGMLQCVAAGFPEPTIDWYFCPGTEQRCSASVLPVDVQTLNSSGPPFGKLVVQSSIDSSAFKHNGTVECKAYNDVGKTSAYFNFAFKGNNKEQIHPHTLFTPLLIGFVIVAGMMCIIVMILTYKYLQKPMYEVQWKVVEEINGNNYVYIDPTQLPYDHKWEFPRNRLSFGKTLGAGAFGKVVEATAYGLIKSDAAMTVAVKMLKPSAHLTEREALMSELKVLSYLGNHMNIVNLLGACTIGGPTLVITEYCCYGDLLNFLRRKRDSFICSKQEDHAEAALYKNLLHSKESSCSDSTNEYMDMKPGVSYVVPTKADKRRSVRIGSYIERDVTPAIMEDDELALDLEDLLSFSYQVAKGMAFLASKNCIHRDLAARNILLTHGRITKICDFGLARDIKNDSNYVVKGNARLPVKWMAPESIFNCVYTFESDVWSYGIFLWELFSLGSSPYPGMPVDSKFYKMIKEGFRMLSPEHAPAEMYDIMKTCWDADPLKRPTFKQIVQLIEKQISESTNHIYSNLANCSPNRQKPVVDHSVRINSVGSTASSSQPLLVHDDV

Q: `COc1cccc(-c2cn(C(C)(C)C)c3ncnc(N)c23)c1` [Compound 5, reference compound] was tested. Which “IC50 of Kinase/IC50 of Yes” value (Abl; Abl relative to Yes) did it give?
A: 2.65

Q: And the inhibition at 0.2 µM (Abl; Abl, 200 nM, average of 2 runs)?
A: 37%

Q: And the inhibition at 1 µM (Abl; Abl, 1000 nM, average of 2 runs)?
A: 78%

Q: And the IC50 (Abl; Abl, error is standard deviation)?
A: 244 nM

Q: And the inhibition at 0.2 µM (Alk; 200 nM)?
A: 11%

Q: And the inhibition at 1 µM (Alk; 1000 nM)?
A: 23%

Q: And the inhibition at 0.2 µM (Blk; 200 nM)?
A: 38%

Q: And the inhibition at 1 µM (Blk; 1000 nM)?
A: 74%

Q: And the inhibition at 0.2 µM (BTK; 200 nM)?
A: 62%

Q: What about the inhibition at 1 µM (BTK; 1000 nM) of the same compound?
A: 90%

Q: What about the inhibition at 0.2 µM (CSK; 200 nM) of the same compound?
A: 36%

Q: And the inhibition at 1 µM (CSK; 1000 nM)?
A: 65%

Q: What about the “IC50 of Kinase/IC50 of Yes” value (EGFR; EGFR relative to Yes) of the same compound?
A: 7 and 6.96

Q: And the inhibition at 0.2 µM (EGFR; EGFR, 200 nM, average of 2 runs)?
A: 28%

Q: What about the inhibition at 1 µM (EGFR; EGFR, 1000 nM, average of 2 runs) of the same compound?
A: 62%

Q: What about the IC50 (EGFR; EGFR, error is standard deviation) of the same compound?
A: 641 nM

Q: And the inhibition at 0.2 µM (Her-2; 200 nM)?
A: 4%

Q: And the inhibition at 1 µM (Her-2; 1000 nM)?
A: 16%

Q: What about the inhibition at 0.2 µM (Fgr; 200 nM) of the same compound?
A: 69%

Q: And the inhibition at 1 µM (Fgr; 1000 nM)?
A: 92%

Q: And the inhibition at 0.2 µM (Fyn; 200 nM)?
A: 56%

Q: What about the inhibition at 1 µM (Fyn; 1000 nM) of the same compound?
A: 84%

Q: What about the inhibition at 0.2 µM (Hck; 200 nM) of the same compound?
A: 59%

Q: And the inhibition at 1 µM (Hck; 1000 nM)?
A: 80%

Q: What about the inhibition at 0.2 µM (Kit; 200 nM) of the same compound?
A: 8%

Q: What about the inhibition at 1 µM (Kit; 1000 nM) of the same compound?
A: 27%

Q: What about the inhibition at 0.2 µM (Lck; 200 nM) of the same compound?
A: 32%

Q: And the inhibition at 1 µM (Lck; 1000 nM)?
A: 79%

Q: And the inhibition at 0.2 µM (Lyn; 200 nM)?
A: 58%

Q: And the inhibition at 1 µM (Lyn; 1000 nM)?
A: 85%

Q: What about the inhibition at 0.2 µM (pdgfr-a; 200 nM) of the same compound?
A: 11%

Q: What about the inhibition at 1 µM (pdgfr-a; 1000 nM) of the same compound?
A: 34%

Q: What about the inhibition at 0.2 µM (pdgfr-b; 200 nM) of the same compound?
A: 6%

Q: And the inhibition at 1 µM (pdgfr-b; 1000 nM)?
A: 19%

Q: What about the “IC50 of Kinase/IC50 of Yes” value (Ret; Ret relative to Yes) of the same compound?
A: 1.4

Q: And the inhibition at 0.2 µM (Ret; Ret, 200 nM, average of 2 runs)?
A: 59%

Q: What about the inhibition at 1 µM (Ret; Ret, 1000 nM, average of 2 runs) of the same compound?
A: 89%

Q: And the IC50 (Ret; Ret, error is standard deviation)?
A: 128 nM

Q: What about the “IC50 of Kinase/IC50 of Yes” value (Yes; Yes relative to Yes) of the same compound?
A: 1

Q: And the inhibition at 0.2 µM (Yes; Yes, 200 nM, average of 2 runs)?
A: 63%

Q: And the inhibition at 1 µM (Yes; Yes, 1000 nM, average of 2 runs)?
A: 90%

Q: And the IC50 (Yes; Yes, error is standard deviation)?
A: 92 nM

Q: What about the “IC50 of Kinase/IC50 of Yes” value (Src kinase; Src relative to Yes) of the same compound?
A: 1.64

Q: What about the IC50 (Src kinase; Src, error is standard deviation) of the same compound?
A: 151 nM

Q: What about the “S(40%)” value ([1]; 200 nM) of the same compound?
A: 0.44

Q: What about the “S(40%)” value ([1]; 1000 nM) of the same compound?
A: 0.72

Q: And the “relative selectivities favoring Yes (IC50 kinase/IC50 YES) over Ret, Src, and Abl” value ([1]; Ret, Src, Abl vs Yes)?
A: 1.4-2.65 fold
